US20040213751A1, “Augmentation of pyrithione activity or a polyvalent metal salt of pyrithione activity by zinc-containing layered material” (priority 2003, published 2004)

Tested on: Malassezia furfur (ATCC 14521)
Assay: Minimum inhibitory concentration (MIC) of ZPT in mDixon agar, with and without augmenting material
Type: cell-based
Description: In some cases, materials can augment the activity of antifungal actives. As used herein, the term augmentation is intended to mean enhancement of the antifungal activity of a ZPT-containing composition by the augmenting material to an extent sufficient to permit the use of a lower amount of ZPT without reducing the antifungal inhibition provided by the composition, as compared to the antifungal inhibition that is provided by an otherwise-identical ZPT-containing composition that is free of the augmenting material. Augmenting agents are generally specific to the material being augmented, forming a unique combination and often because there is a specific chemical or biological mechanism required to achieve the augmentation effect. ^1 The Minimum Inhibitory Concentration is indicative of anti-fungal efficacy. Generally, the lower the value of the composition, the better its anti-fungal efficacy, due to increased inherent ability of the anti-dandruff agent to inhibit the growth of microorganisms.
An “augmentation factor” is defined, which is the ratio of the MIC with and without an augmenting agent (at a specified concentration): [formula]
Dilutions of solubilized anti-microbial active were then added to test tubes containing molten mDixon agar. M. furfur inoculum was added to each tube of molten agar, the tube vortexed, and the contents poured into separate sterile petri dishes. […] The lowest tested dilution of anti-microbial active that yields no growth is defined as the Minimal Inhibitory Concentration (MIC).
1) Malassezia furfur was grown in a 250 ml Erlenmeyer flask containing 100 mil “mDIXON” medium at 320 rpm and 30° C. until turbid.
2) Selected dilutions were prepared using an appropriate dilution series, of the anti-microbial active or combination in solvent, which allowed the sample active to be solubilized prior to addition to the final test agar. For each concentration of the ZPT samples, the solvent was “DMSO”; for other samples, the solvent was water or “DMSO” or other suitable solvent.
3) 0.25 ml dilutions of anti-microbial active were added to test tubes containing 9.5 ml molten “mDIXON” agar (held at 45° C. in a water bath).
4) 0.25 M. furfur inoculum (adjusted to 5×10^5 cfu/ml by direct count) was added to each test tube of molten agar.
5) Each tube was vortexed, and the contents poured into separate petri dishes.
6) After the agar solidified, the plates inverted and incubated at 30° for 5 days.
7) The plates were then observed for visible M. furfur growth.

| MIC of ZPT alone (Malassezia furfur, mDixon agar, 30° for 5 days, no augmenting material) | Compound | Augmentation Benefit (5 ppm augmenting material, effective agent has augmentation factor greater than 1) | MIC of ZPT with 5 ppm augmenting material (Malassezia furfur, mDixon agar, 30° for 5 days, 5 ppm of the named augmenting material) | Augmentation Factor (ratio of the MIC of ZPT without and with 5 ppm augmenting material) |
| --- | --- | --- | --- | --- |
| 8 ppm | [O-]n1ccccc1=S.[O-]n1ccccc1=S.[Zn+2] [ZPT, zinc salt of 1-hydroxy-2-pyridinethione] | – | – | – |
| – | Zinc Stearate | No | 8 ppm | 1.0 |
